Test results taken from US4499087A, “7-Phenyl-7-phenoxymethyl-hexahydro-1,4-oxazepines and their use” (BASF Aktiengesellschaft, priority 1982, dated 1985).
Where a name gives a salt, the structure may show the parent alone.

How the values were obtained:
norepinephrine uptake = assay: Inhibition of norepinephrine uptake in rat brain synaptosomes (hippocampus, 3H norepinephrine); assay type: biochemical; conditions: for IC50: rat hippocampus synaptosomes, 3H norepinephrine about 10 nM, 37° C., read-out: Norepinephrine IC50 (inhibition of neurotransmitter uptake in synaptosomes); for inhibition of norepinephrine and serotonin uptake (in words): synaptosomes, both transmitters
Experimental: (§1) The action mechanism of a group of therapeutically much used antidepressants must be regarded as being the inhibition of the neuronal uptake of transmitter substances (norepinephrine and/or serotonin). These properties were utilized in biological test models for characterizing potential antidepressants (inhibition of neurotransmitter uptake in rat brain synaptosomes):
(§2) Hippocampus and cortex from rat brain were prepared, and were homogenized in 0.32M sucrose solution. By means of differential centrifuging, synaptosomes were obtained, and these were suspended in buffer solution. The synaptosomes are able actively to take up added neurotransmitter substances (eg. norepinephrine or serotonine) from the surrounding medium. It is possible to antagonize this process by uptake inhibitors, as a function of concentration. Various concentrations of the test substances were added to the synaptosomes, and the mixtures were then incubated with ^3 H norepinephrine (hippocampus) or ^3 H serotonin (cortex) at 37° C. The substrate concentration was about 10 nM. The uptake was terminated by diluting the mixture with ice-cooled buffer solution, after which the synaptosomes were separated off by centrifuging and the ^3 H activity in the sediment was measured. A blank value was determined by incubation at 0° C.
(§3) From the inhibitory values determined for various inhibitor concentrations compared with the control, the mean inhibitory concentration (IC50) was calculated by linear regression following logit-log transformation.

serotonin uptake = assay: Inhibition of serotonin uptake in rat brain synaptosomes (cortex, 3H serotonin); assay type: biochemical; conditions: 3H serotonin about 10 nM, 37° C., read-out: Serotonin IC50 (inhibition of neurotransmitter uptake in synaptosomes)
Experimental: as §1, §2, §3

Structure (SMILES)	IC50 (norepinephrine uptake)	IC50 (serotonin uptake)	inhibition of norepinephrine and serotonin uptake (in words) (norepinephrine uptake)
c1ccc(OCC2(c3ccccc3)CCNCCO2)cc1 (stereo not drawn) [Example 1, 7-phenyl-7-phenoxymethyl-hexahydro-1,4-oxazepine hydrochloride]	15 nM	190 nM	–
Clc1ccccc1OCC1(c2ccccc2)CCNCCO1 (stereo not drawn) [Example 2, 7-phenyl-7-(2-chlorophenoxymethyl)-hexahydro-1,4-oxazepine hydrochloride]	2.8 nM	460 nM	–
COc1ccc(OCC2(c3ccccc3)CCNCCO2)cc1.Cl (stereo not drawn) [Example 5, 7-phenyl-7-(4-methoxyphenoxymethyl)-hexahydro-1,4-oxazepine hydrochloride]	86 nM	100 nM	inhibit the uptake of both transmitters at an equally low concentration
CN1CCOC(COc2ccccc2Cl)(c2ccccc2)CC1 (stereo not drawn) [Example 7]	98 nM	300 nM	inhibit the uptake of both transmitters at an equally low concentration
CN(C)CCCN1c2ccccc2CCc2ccccc21 [Imipramine, reference compound]	14 nM	130 nM	inhibits both norepinephrine uptake and serotonin uptake at low concentration
COc1ccccc1OCC1(c2ccccc2)CCNCCO1 (stereo not drawn) [Example 3, 7-phenyl-7-(2-methoxyphenoxymethyl)-hexahydro-1,4-oxazepine hydrochloride]	5.9 nM	190 nM	–
Clc1ccc(OCC2(c3ccccc3)CCNCCO2)cc1 (stereo not drawn) [Example 4, 7-phenyl-7-(4-chlorophenoxymethyl)-hexahydro-1,4-oxazepine]	74 nM	39 nM	inhibit the uptake of both transmitters at an equally low concentration
